From patent publication US7776862B2, “Pyridyl and phenyl substituted piperazine-piperidines with CXCR3 antagonist activity” (Schering Corporation, priority 2005, dated 2010)

Each molecule was assayed against T1, human CXCR3 (N-delta 4) (Homo sapiens, UniProt P49682) (assay: Human CXCR3 (N-delta 4) scintillation proximity assay (SPA), [125I] IP-10 binding). Details: IC50 rating; Ba/F3-hCXCR3 (N-delta 4) membranes, 25 pM [125I] IP-10.
T1 construct: CD8 leader; Flag tag; expressed in transfected cells; membranes used
T1 sequence (P49682 5-368 limits assumed): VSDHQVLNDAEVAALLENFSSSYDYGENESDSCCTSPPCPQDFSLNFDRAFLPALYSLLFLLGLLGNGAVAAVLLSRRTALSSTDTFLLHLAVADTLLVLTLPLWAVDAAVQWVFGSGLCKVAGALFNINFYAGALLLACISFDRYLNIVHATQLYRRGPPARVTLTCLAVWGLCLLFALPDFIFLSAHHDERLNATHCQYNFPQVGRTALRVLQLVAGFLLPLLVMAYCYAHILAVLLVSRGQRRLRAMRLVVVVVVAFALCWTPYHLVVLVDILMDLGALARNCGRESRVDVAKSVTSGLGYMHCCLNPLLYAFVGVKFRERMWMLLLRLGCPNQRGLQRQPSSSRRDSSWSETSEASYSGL
In short: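 Membranes from mouse Ba/F3 pro-B cells stably expressing Flag-tagged human CXCR3 (N-delta 4) were coupled to SPA beads. IP-10 was added together with titrated compounds to start the reaction, and bound radioligand was read by scintillation proximity.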

Compound	IC50
CCC(=O)c1cnc(N2CCN(C3CCN(Cc4ccc(Cl)cc4F)CC3)[C@@H](CC)C2)c(Cl)c1 [compound 411]	25 to 100 nM
CC[C@H]1CN(c2ncc(CNc3c(NC4CC4)c(=O)c3=O)cc2Cl)CCN1C1CCN(Cc2ccc(Br)cc2F)CC1 [compound 412]	25 to 100 nM
CC[C@H]1CN(c2ncc(CN)cc2Cl)CCN1C1CCN(Cc2ccc(Cl)cc2)CC1 [compound 413]	25 to 100 nM
CC[C@H]1CN(c2ncc(CN(C3CC3)S(C)(=O)=O)cc2Cl)CCN1C1CCN(Cc2ccc(Cl)cc2F)CC1 [compound 414]	25 to 100 nM
CCOC(=N)c1cnc(N2CCN(C3CCN(Cc4ccc(Cl)cc4F)CC3)[C@@H](CC)C2)c(Cl)c1 [compound 415]	25 to 100 nM
CC[C@H]1CN(c2ncc(CNS(=O)(=O)CC(F)(F)F)cc2Cl)CCN1C1CCN(Cc2ccc(Cl)cc2F)CC1 [compound 416]	25 to 100 nM
CC[C@H]1CN(c2ncc(CNC(=O)Nc3c(C)noc3C)cc2Cl)CCN1C1CCN(Cc2ccc(Cl)cc2F)CC1 [compound 417]	25 to 100 nM
CC[C@H]1CN(c2ncc(CO)cc2Cl)CCN1C1CCN(C(=O)c2ccc(Br)cc2)CC1 [compound 418]	25 to 100 nM
CC[C@H]1CN(c2ncc(C(=O)C3CC3)cc2Cl)CCN1C1CCN(Cc2ccc(Cl)cc2F)CC1 [compound 419]	25 to 100 nM
CC[C@H]1CN(c2ncc(COC(=O)Nc3ccc(F)cc3)cc2Cl)CCN1C1CCN(Cc2ccc(Cl)cc2F)CC1 [compound 420]	25 to 100 nM
CC[C@H]1CN(c2ncc(CN)cc2Cl)CCN1C1CCN(Cc2ccc(Br)cc2F)CC1 [compound 421]	25 to 100 nM
CCOC(CNC(=N)c1cnc(N2CCN(C3CCN(Cc4ccc(Cl)cc4F)CC3)[C@@H](CC)C2)c(Cl)c1)OCC [compound 422]	25 to 100 nM
CCNC(=O)N(Cc1cnc(N2CCN(C3CCN(Cc4ccc(Cl)cc4F)CC3)[C@@H](CC)C2)c(Cl)c1)C1CC1 [compound 423]	25 to 100 nM
CCOCc1cnc(N2CCN(C3CCN(Cc4ccc(Cl)cc4F)CC3)[C@@H](CC)C2)c(Cl)c1 [compound 424]	25 to 100 nM
CC[C@H]1CN(c2ncc(CN)cc2Cl)CCN1C1CCN(Cc2ccc(Cl)cc2F)CC1 [compound 425]	25 to 100 nM
CC[C@H]1CN(c2ncc(C(=N)NN)cc2Cl)CCN1C1CCN(Cc2ccc(Cl)cc2F)CC1 [compound 426]	25 to 100 nM
CC[C@H]1CN(c2ncc(C(C)=O)cc2Cl)CCN1C1CCN(Cc2ccc(Cl)cc2F)CC1 [compound 427]	25 to 100 nM
CC[C@H]1CN(c2ncc(C(=O)c3ncco3)cc2Cl)CCN1C1CCN(Cc2ccc(Cl)cc2F)CC1 [compound 428]	25 to 100 nM
C[C@H]1CN(c2ncc(C(=N)N)cc2Cl)CCN1C1CCN(Cc2ccc(Cl)cc2)CC1 [compound 429]	25 to 100 nM
CCNC(=N)c1cnc(N2CCN(C3CCN(Cc4ccc(Cl)cc4)CC3)[C@@H](C)C2)c(Cl)c1 [compound 430]	25 to 100 nM
CC[C@H]1CN(c2ncc(CNC3=NCCN3)cc2Cl)CCN1C1CCN(Cc2ccc(Cl)cc2F)CC1 [compound 431]	25 to 100 nM
CC[C@H]1CN(c2ncc(CN(C(=O)N(C)C)C3CC3)cc2Cl)CCN1C1CCN(Cc2ccc(Cl)cc2F)CC1 [compound 432]	25 to 100 nM
CC[C@H]1CN(c2ncc(C(C)O)cc2Cl)CCN1C1CCN(Cc2ccc(Cl)cc2F)CC1 (some centres unmarked) [compound 433]	> 100 nM
CCNC(=O)OC(C)c1cnc(N2CCN(C3CCN(Cc4ccc(Cl)cc4F)CC3)[C@@H](CC)C2)c(Cl)c1 (some centres unmarked) [compound 434]	> 100 nM
CC[C@H]1CN(c2ncc(C(=O)OC)cc2Cl)CCN1C1CCN(Cc2ccc(Br)cc2F)CC1 [compound 435]	> 100 nM

Compound	IC50
CC[C@H]1CN(c2ncc(C(=O)O)cc2Cl)CCN1C1CCN(Cc2ccc(Cl)cc2F)CC1 [compound 436]	> 100 nM
CC[C@H]1CN(c2ncc(C(O)c3ncco3)cc2Cl)CCN1C1CCN(Cc2ccc(Cl)cc2F)CC1 (some centres unmarked) [compound 437]	> 100 nM
CC[C@H]1CN(c2c(Cl)cc(C(=O)OC)c[n+]2[O-])CCN1C1CCN(Cc2ccc(Cl)cc2F)CC1 [compound 438]	> 100 nM
CC/N=C(/NCC)c1cnc(N2CCN(C3CCN(Cc4ccc(Cl)cc4)CC3)[C@@H](C)C2)c(Cl)c1 [compound 439]	> 100 nM
C[C@H]1CN(c2ncc(CN)cc2Cl)CCN1C1CCN(Cc2ccc(Cl)cc2)CC1 [compound 440]	> 100 nM
CC[C@H]1CN(c2ncc(C(=O)OC)c(N)c2Cl)CCN1C1CCN(Cc2ccc(Cl)cc2F)CC1 [compound 441]	> 100 nM
CC[C@H]1CN(c2ncc(C(=N)N)cc2Cl)CCN1C1CCN(C(=O)c2ccc(Cl)nc2N)CC1 [compound 442]	> 100 nM
CC[C@H]1CN(c2ncc(CNS(=O)(=O)C(F)(F)F)cc2Cl)CCN1C1CCN(Cc2ccc(Cl)cc2F)CC1 [compound 443]	> 100 nM
CCC(=NO)c1cnc(N2CCN(C3CCN(Cc4ccc(Cl)cc4F)CC3)[C@@H](CC)C2)c(Cl)c1 [compound 444]	> 100 nM
CC[C@H]1CN(c2ncc(CN(C(=O)Nc3c(C)noc3C)C(=O)Nc3c(C)noc3C)cc2Cl)CCN1C1CCN(Cc2ccc(Cl)cc2F)CC1 [compound 445]	> 100 nM
CC[C@H]1CN(c2ncc(C(C)(C)O)cc2Cl)CCN1C1CCN(Cc2ccc(Cl)cc2F)CC1 [compound 446]	> 100 nM
CC[C@H]1CN(c2ncc(C(=O)OC)cc2Cl)CCN1C1CCN(Cc2ccc(F)cc2C(F)(F)F)CC1 [compound 447]	> 100 nM
CC[C@H]1CN(c2ncc(CO)cc2Cl)CCN1C1CCN(C(=O)c2ccccc2)CC1 [compound 448]	> 100 nM
COC(=O)c1cnc(N2CCN(C3CCN(Cc4ccc(F)cc4)CC3)[C@@H](C)C2)c(Cl)c1 [compound 449]	> 100 nM
CC[C@H]1CN(c2ncc(C(C)N)cc2Cl)CCN1C1CCN(Cc2ccc(Cl)cc2F)CC1 (some centres unmarked) [compound 450]	> 100 nM
CC[C@H]1CN(c2ncc(C(C)OC(C)=O)cc2Cl)CCN1C1CCN(Cc2ccc(Cl)cc2F)CC1 (some centres unmarked) [compound 451]	> 100 nM
CC[C@H]1CN(c2ccc(CN)cn2)CCN1C1CCN(Cc2ccc(Cl)cc2)CC1 [compound 452]	> 100 nM
CCOC(CNC(=N)c1cnc(N2CCN(C3CCN(C(=O)c4ccc(Cl)cc4)CC3)[C@@H](CC)C2)c(Cl)c1)OCC [compound 453]	> 100 nM
CC[C@H]1CN(c2ncc(C(=O)OC)cc2Cl)CCN1C1CCN(C(=O)c2ccc(Br)cc2)CC1 [compound 454]	> 100 nM
CCC(=NOC)c1cnc(N2CCN(C3CCN(Cc4ccc(Cl)cc4F)CC3)[C@@H](CC)C2)c(Cl)c1 [compound 455]	> 100 nM
COC(=O)c1ccc(N2C[C@H](C)N(C3CCN(Cc4ccc(Cl)cc4F)CC3)C[C@H]2C)nc1 [compound 456]	> 100 nM
CC[C@H]1CN(c2ncc(C(=O)OC)cc2Cl)CCN1C1CCN(C(=O)c2ccc(-n3cccc3)cc2)CC1 [compound 457]	> 100 nM
CC[C@H]1CN(c2c(Cl)cc(C(=O)OC)c[n+]2[O-])CCN1C1CCN(Cc2ccc(Cl)cc2F)CC1 [compound 458]	25 to 100 nM
CC[C@H]1CN(c2ncc(C(N)=O)cc2Cl)CCN1C1CCN(Cc2ccc(Cl)cc2N2CCOC2=O)CC1 [compound 460]	25 to 100 nM
CC[C@H]1CN(c2ncc(C(=O)NC3CC3)cc2C)CCN1C1CCN(C(=O)c2ccc(Cl)cc2)CC1 [compound 461]	< 25 nM
